Measurements as given in article PMC12040169 (PLOS Biology, 2025).

assay: in vitro; conditions: human, hela cells, % viability

SMILES | viability at 28.5 h, 10 µM [%]
O=C(CCCn1ccnc1)NCC1(c2cccc(F)c2)CCCC1 [CBK281500] | 88.5
O=C(C1CC2C=CC1C21CC1)N1CCC(Oc2cccnc2)CC1 (stereo not shown) [CBK281501] | 101
Cc1ccc(S(=O)(=O)NCCn2nc(C)c(C)c2C)s1 [CBK281502] | 86.7
O=C(NCc1ccc2c(c1)CCCO2)C1CC2C=CC1C21CC1 (stereo not shown) [CBK281503] | 89.1
CC(O)(c1ccncc1)c1nccs1 (stereo not shown) [CBK281504] | 90.1
CC(C)Cc1cc(CNS(=O)(=O)Cc2ccccc2F)on1 [CBK281505] | 96.6
Cc1cc(C)c(C)c(OCCCNC(=O)Cc2c(C)noc2C)c1 [CBK281506] | 100
Cc1noc(C)c1CC(=O)NC(CN1CCCCC1)c1ccccc1 (stereo not shown) [CBK281507] | 89.1
COc1ccc(N2CC(C(=O)N(C)CC(F)(F)F)CC2=O)cc1 (stereo not shown) [CBK281510] | 98.2
Cc1noc(C)c1CC(=O)NC(C)CCc1ccc(F)cc1 (stereo not shown) [CBK281511] | 89.8
O=C(C1CC2C=CC1C21CC1)N1CCCC(c2nc3ccccc3[nH]2)C1 (stereo not shown) [CBK281513] | 91.4
CC1CCc2onc(C(=O)NCc3nccn3C)c2C1 (stereo not shown) [CBK281514] | 68.9
Cc1cc(C)n(C(C)CC(=O)NCc2ccccc2-n2ccnc2)n1 (stereo not shown) [CBK281518] | 84.3
CC1Oc2ccc(NC(=O)C3CC4C=CC3C43CC3)cc2NC1=O (stereo not shown) [CBK281523] | 101
CC(C)Cc1cc(CNC(=O)C(C)n2cc(Cl)cn2)on1 (stereo not shown) [CBK281524] | 92.8
O=C(C1CC2C=CC1C21CC1)N1CCC(Oc2cccc(F)c2)CC1 (stereo not shown) [CBK281525] | 85.4
CCN1CC(C(=O)Nc2nc3c(s2)CCCCCC3)CC1=O (stereo not shown) [CBK281526] | 84.2
COc1ccc2[nH]c3c(c2c1)CN(C(=O)CCC1CCCO1)CC3 (stereo not shown) [CBK281530] | 99.7
Cc1cccc(OCC2CCCN(C(=O)Cn3cc(C)cn3)C2)c1 (stereo not shown) [CBK281531] | 89.9
CCCn1ncc(C(=O)NC(C)c2c(C)nn(CC)c2C)c1C (stereo not shown) [CBK281532] | 85.5
CCn1nc(C)c(C(C)NC(=O)c2ccnn2C(F)F)c1C (stereo not shown) [CBK281535] | 88.4
Cc1[nH]c2ccc(CNC(=O)Cn3ccnc3C(C)C)cc2c1C [CBK281540] | 87.6
CC(C)(C)OC(=O)N1CCc2[nH]nc(Nc3ccccc3)c2C1 [CBK281541] | 80

SMILES | viability at 28.5 h, 10 µM [%]
O=C([C@@H]1C[C@@H]2C=C[C@H]1C2)N1CCC(c2noc3cc(F)ccc23)CC1 [CBK281542] | 76.5
CCn1cc(CN2CCN(C(=O)C3C4CCCCC43)CC2)c(C)n1 (stereo not shown) [CBK281545] | 97.1
CCCn1c(C)cc2cc(NC(=O)Cn3cc(C)nn3)ccc21 [CBK281548] | 104
O=C(NCC1(c2ccccc2F)CCOCC1)[C@@H]1C[C@@H]2C=C[C@H]1C2 [CBK281552] | 91.6
CCOc1ccc2c(c1)cc(C(=O)NCc1cc(CC)no1)n2C [CBK281553] | 95.5
CCc1cc(CNC(=O)c2cc(C)nc3c(C)cccc23)on1 [CBK281554] | 108
CCc1cc(CNC(=O)c2ccc(C)c(-n3nc(C)cc3C)c2)on1 [CBK281557] | 91.7
Cc1nc(C)n(CC(=O)NCCCc2ccc(Cl)cc2)n1 [CBK281559] | 90.9
Cc1cc(C)n(CC(=O)NCCCc2ccc(Cl)cc2)c(=O)n1 [CBK281561] | 96.3
CC(=O)N1CCC[C@@H](N)[C@@H]1c1ccccc1F [CBK281562] | 111
N[C@@H]1CCCN(C(=O)C2CC2)[C@H]1c1ccccc1F [CBK281563] | 97
Cc1ccc(C(=O)NCCCc2ccc(Cl)cc2)c(=O)n1C [CBK281567] | 80.4
CCn1nc(C)c(-c2cncn2CCN(C)C2CCCC2)c1C [CBK281569] | 109
CCN1CCc2cc(-c3cncn3CCCn3nc(C)cc3C)ccc21 [CBK281572] | 104
COc1ccc2oc(C(=O)NC(C)c3cn(C)nc3C)cc2c1 (stereo not shown) [CBK281573] | 90.9
Cn1nc(-c2ccc(F)cc2)cc1C(=O)NCCn1ccnc1 [CBK281576] | 87.8
CC(C)(C)OC(=O)N1CCCC1C1COc2ccccc2C1=O (stereo not shown) [CBK281579] | 89.2
CC(C)(C)C1CCc2onc(C(=O)NCCn3ccnc3)c2C1 (stereo not shown) [CBK281581] | 87.1
O=C(NCCn1ccnc1)C1CC(=O)N(c2cccc(F)c2)C1 (stereo not shown) [CBK281582] | 105
Cn1c(C(=O)Nc2ccc(Cn3cncn3)cc2)cc2cc(F)ccc21 [CBK281584] | 104
Cc1nccn1CCCNC(=O)c1ccc(N2CCCC2)cc1 [CBK281589] | 81.6
CCc1cc(CNC(=O)C(c2ccccc2)N2CCC(C)CC2)on1 (stereo not shown) [CBK281592] | 92.4
Cc1cc(C)n(C(C(=O)NCCOc2ccc(F)cc2)C(C)C)n1 (stereo not shown) [CBK281595] | 81.4

SMILES | viability at 28.5 h, 10 µM [%]
O=C(NCCOc1ccc(F)cc1)c1cccc(-n2cccn2)c1 [CBK281596] | 101
CC(C)c1nccn1CC(=O)NCCOc1ccc(F)cc1 [CBK281597] | 89.6
CC1CCCN(CC(C)(C)NC(=O)c2cc(C(F)(F)F)nn2C)C1 (stereo not shown) [CBK281598] | 87.9
CC1(NC(=O)c2cccc(OCCN3CCCC3=O)c2)CCC1 [CBK281602] | 92.8
COc1nn(CC(=O)NC2(C)CCC2)c(=O)c2ccccc12 [CBK281603] | 83.2
CC1(NC(=O)CC(c2ccncc2)c2c[nH]c3ccccc23)CCC1 (stereo not shown) [CBK281610] | 88.8
O=C(c1cc2c(F)cccc2[nH]1)N1CCCCC1CCN1CCCC1 (stereo not shown) [CBK281612] | 85.7
CCn1c(CN2CCC(n3nc(C)cc3C)CC2)nc2ccccc21 [CBK281615] | 88.5
Cc1ccn2c(CN3CCC(n4nc(C)cc4C)CC3)c(C)nc2c1 [CBK281616] | 83.6
Cc1cc(C)n(C2CCN(Cc3c(C)nc4c(C)cccn34)CC2)n1 [CBK281617] | 101
Cc1cc(C)n(C2CCN(Cc3nc4ccccc4n3C)CC2)n1 [CBK281621] | 84.3
Cc1cc(C)n(C2CCN(Cc3ccc4ccccc4n3)CC2)n1 [CBK281622] | 87.9
CCn1cc(-c2cncn2CCOc2ccc(C)cc2)cn1 [CBK281623] | 88.5
CC(NC(=O)CCc1ccncc1)c1ccc2c(c1)CCCO2 (stereo not shown) [CBK281624] | 88.3
Cc1ccn(CCNC(=O)C(C)Cc2cccs2)n1 (stereo not shown) [CBK281625] | 106
COc1ccc(CCNC(=O)c2cc3c([nH]c2=O)CCC3)cc1C [CBK281627] | 83.2
Cc1nc(C)c(C(=O)NC2CCCNC2=O)s1 (stereo not shown) [CBK281628] | 86.8
CCc1nccn1CCC(=O)Nc1ccc2c(c1)nc(CC)n2CC [CBK281629] | 81.2
Cc1ccc2oc(C(=O)N(C)Cc3c(C)nn(C)c3C)c(C)c2c1 [CBK281631] | 80.9
Cc1cc(C(=O)NC(C)Cn2nc(C)cc2C)c2cccc(C)c2n1 (stereo not shown) [CBK281635] | 91.4
CC(NC(=O)Cn1c(=O)oc2ccc(Cl)cc21)C1CC2CCC1C2 (stereo not shown) [CBK281636] | 87.7
